The values that follow are results of earlier work, collected in US20200179352A1, “USE OF VALBENAZINE FOR TREATING LEVODOPA-INDUCED DYSKINESIA” (Neurocrine Biosciences, Inc., priority 2017, published 2020).

The conditions of this data set: series of 448 patients with various hyperkinetic movement disorders treated with tetrabenazine from 1997-2004.

For `COc1cc2c(cc1OC)C1CC(=O)C(CC(C)C)CN1CC2` (stereo not shown) [tetrabenazine, 3-isobutyl-9,10-dimethoxy-1,3,4,6,7,11b-hexahydro-2H-pyrido[2,1-a]isoquinolin-2-one], the “adverse event rate for parkinsonism” value is listed as 15.4%.
